Literature values in patent US20170239455A1 (priority 2014, published 2017).

System: virus Ebola

II [molecular iodine]
effectiveness against the virus: effective
